Here are results for two compounds from PMC5862592, “CDK8/19 inhibition induces premature G1/S transition and ATR-dependent cell death in prostate cancer cells” (Oncotarget, 2018).

Read-outs that look alike come from different tables or passages of the source.

Test in all cases: biochemical
Common to all, as to set-up: KINOMEscan active site-directed competition binding assay (DiscoveRx), 456 kinases, per cent of control at 300 nM
Holding throughout (details): read-out: Percent of Control (%)

One assay concerns the target T1, GCN2(Kin.Dom.2,S808G) (Homo sapiens, UniProt Q9P2K8, S808G).
T1 construct: gene EIF2AK4; Kin.Dom.2
An outline of the steps: (§1)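 Binding was measured with an active site-directed competition binding assay that quantifies compound–kinase interactions. Test compounds were screened at 300 nmol/L across a 456-kinase panel.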

The target of another assay is CAMK1G (Homo sapiens, UniProt Q96NX5). An outline of the steps:
as §1

For a further assay, the target named is RAF1 (Homo sapiens, UniProt P04049). An outline of the steps: as §1
Another assay concerns the target CAMK2G (Homo sapiens, UniProt Q13555). An outline of the steps: as §1
For another assay, the target named is KIT(V559D,T670I) (Homo sapiens, UniProt P10721, T670I/V559D). An outline of the steps: as §1
In another assay the target is T2, MEK3 (Homo sapiens, UniProt P46734).
T2 construct: gene MAP2K3
An outline of the steps: as §1

Another assay deals with T3, ADCK3 (Homo sapiens, UniProt Q8NI60).
T3 construct: gene COQ8A
An outline of the steps:
as §1

A further assay concerns the target HIPK3 (Homo sapiens, UniProt Q9H422). An outline of the steps:
as §1

The target of the next assay is EPHA1 (Homo sapiens, UniProt P21709). An outline of the steps:
as §1

Another assay deals with CAMK1 (Homo sapiens, UniProt Q14012). An outline of the steps: as §1
A further assay addresses FGFR4 (Homo sapiens, UniProt P22455). An outline of the steps:
as §1

In a further assay the target is ALK(L1196M) (Homo sapiens, UniProt Q9UM73, L1196M). An outline of the steps:
as §1

The next assay addresses CDK3 (Homo sapiens, UniProt Q00526). An outline of the steps:
as §1

The target of another assay is RIOK1 (Homo sapiens, UniProt Q9BRS2). An outline of the steps:
as §1

Another assay addresses MYLK2 (Homo sapiens, UniProt Q9H1R3). An outline of the steps: as §1
Another assay addresses T4, ASK1 (Homo sapiens, UniProt Q99683).
T4 construct: gene MAP3K5
An outline of the steps: as §1

A further assay deals with CDKL5 (Homo sapiens, UniProt O76039). An outline of the steps: as §1
In another assay the target is MYO3A (Homo sapiens, UniProt Q8NEV4). An outline of the steps:
as §1

Another assay addresses CAMK1D (Homo sapiens, UniProt Q8IU85). An outline of the steps: as §1
The target of another assay is HIPK1 (Homo sapiens, UniProt Q86Z02). An outline of the steps:
as §1

For a further assay, the target named is PKN1 (Homo sapiens, UniProt Q16512). An outline of the steps: as §1
The next assay has as its target BMPR2 (Homo sapiens, UniProt Q13873). An outline of the steps: as §1

Sequence of CAMK2G (Q13555 whole entry): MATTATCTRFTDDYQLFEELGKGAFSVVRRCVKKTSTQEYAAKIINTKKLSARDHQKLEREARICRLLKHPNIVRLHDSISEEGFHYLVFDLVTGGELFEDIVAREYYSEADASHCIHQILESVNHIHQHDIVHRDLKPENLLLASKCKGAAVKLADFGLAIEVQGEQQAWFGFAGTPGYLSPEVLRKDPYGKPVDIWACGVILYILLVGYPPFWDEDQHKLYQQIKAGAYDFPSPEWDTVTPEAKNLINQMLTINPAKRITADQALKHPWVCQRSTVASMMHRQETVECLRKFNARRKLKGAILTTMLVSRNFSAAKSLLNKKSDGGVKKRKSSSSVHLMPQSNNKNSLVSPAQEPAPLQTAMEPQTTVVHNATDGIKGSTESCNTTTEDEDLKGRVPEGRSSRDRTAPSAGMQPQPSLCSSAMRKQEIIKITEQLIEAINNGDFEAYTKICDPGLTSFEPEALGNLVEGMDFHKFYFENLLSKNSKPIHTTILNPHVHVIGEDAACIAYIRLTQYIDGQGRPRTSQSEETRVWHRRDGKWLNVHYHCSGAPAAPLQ
Sequence of RIOK1 (Q9BRS2 whole entry): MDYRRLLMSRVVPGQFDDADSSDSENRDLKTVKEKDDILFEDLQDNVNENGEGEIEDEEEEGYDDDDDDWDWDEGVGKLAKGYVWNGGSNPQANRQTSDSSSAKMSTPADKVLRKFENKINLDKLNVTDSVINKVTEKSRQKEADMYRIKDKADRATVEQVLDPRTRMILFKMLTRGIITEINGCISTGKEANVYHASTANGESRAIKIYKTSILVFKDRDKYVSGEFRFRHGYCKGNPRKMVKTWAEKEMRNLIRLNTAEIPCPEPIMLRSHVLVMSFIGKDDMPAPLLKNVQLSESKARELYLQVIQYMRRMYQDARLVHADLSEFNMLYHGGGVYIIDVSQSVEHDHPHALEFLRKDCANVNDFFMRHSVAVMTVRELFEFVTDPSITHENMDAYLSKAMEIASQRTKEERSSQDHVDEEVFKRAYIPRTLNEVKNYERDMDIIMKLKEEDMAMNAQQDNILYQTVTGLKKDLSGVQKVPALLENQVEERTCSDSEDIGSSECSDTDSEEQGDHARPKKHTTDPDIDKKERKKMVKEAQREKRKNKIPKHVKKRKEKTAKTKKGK
Sequence of HIPK3 (Q9H422 whole entry): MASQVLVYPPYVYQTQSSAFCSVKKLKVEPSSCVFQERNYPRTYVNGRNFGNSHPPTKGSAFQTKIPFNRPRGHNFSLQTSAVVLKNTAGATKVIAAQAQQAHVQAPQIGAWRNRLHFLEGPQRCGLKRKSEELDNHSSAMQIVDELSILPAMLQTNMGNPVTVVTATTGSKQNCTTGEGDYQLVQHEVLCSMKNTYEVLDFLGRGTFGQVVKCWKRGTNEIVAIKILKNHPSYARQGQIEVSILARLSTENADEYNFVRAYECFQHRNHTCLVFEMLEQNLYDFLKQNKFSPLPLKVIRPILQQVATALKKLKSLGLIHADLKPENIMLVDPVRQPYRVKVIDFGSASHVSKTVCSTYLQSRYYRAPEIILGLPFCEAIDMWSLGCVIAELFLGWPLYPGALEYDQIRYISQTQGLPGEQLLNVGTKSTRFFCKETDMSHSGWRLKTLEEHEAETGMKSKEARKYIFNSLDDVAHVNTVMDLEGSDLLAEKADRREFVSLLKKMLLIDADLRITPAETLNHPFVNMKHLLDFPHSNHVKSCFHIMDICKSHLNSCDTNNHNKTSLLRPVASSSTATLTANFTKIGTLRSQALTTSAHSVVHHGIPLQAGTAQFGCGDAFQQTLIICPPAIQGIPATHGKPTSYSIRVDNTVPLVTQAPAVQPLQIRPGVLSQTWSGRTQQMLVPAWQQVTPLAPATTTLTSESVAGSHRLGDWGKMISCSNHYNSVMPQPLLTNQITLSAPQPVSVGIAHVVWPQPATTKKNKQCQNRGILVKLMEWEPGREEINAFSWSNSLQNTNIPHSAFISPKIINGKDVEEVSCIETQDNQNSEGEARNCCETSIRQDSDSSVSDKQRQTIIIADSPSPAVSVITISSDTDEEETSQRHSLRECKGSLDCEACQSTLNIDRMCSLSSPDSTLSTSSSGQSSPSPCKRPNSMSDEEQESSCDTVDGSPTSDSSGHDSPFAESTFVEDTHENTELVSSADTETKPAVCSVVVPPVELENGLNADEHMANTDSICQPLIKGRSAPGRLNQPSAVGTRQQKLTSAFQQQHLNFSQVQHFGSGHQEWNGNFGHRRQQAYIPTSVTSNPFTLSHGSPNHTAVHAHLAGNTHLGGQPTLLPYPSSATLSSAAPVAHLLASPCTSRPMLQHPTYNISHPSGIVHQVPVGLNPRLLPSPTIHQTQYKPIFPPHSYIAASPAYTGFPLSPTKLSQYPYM
Sequence of CAMK1G (Q96NX5 whole entry): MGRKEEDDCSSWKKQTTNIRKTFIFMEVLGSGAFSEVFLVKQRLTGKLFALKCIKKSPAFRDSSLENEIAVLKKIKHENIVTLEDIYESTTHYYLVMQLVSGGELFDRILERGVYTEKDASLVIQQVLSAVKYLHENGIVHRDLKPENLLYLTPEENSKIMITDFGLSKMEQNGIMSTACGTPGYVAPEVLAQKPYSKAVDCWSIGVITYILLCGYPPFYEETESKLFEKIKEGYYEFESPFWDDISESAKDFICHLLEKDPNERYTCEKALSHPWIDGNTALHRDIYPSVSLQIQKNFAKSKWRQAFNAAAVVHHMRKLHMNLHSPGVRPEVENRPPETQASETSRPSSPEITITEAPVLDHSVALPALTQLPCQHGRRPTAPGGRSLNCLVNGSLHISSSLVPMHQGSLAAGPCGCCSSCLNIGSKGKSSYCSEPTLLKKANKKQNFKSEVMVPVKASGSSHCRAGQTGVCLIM
Sequence of CDK3 (Q00526 whole entry): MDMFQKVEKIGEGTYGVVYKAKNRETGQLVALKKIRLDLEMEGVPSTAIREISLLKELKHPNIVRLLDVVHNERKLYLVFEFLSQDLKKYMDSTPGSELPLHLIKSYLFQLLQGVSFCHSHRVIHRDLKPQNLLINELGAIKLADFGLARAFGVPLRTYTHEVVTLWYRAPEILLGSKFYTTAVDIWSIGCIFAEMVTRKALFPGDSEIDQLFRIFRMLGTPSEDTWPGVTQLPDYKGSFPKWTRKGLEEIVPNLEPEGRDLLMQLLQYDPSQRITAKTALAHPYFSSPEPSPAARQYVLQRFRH
Sequence of RAF1 (P04049 whole entry): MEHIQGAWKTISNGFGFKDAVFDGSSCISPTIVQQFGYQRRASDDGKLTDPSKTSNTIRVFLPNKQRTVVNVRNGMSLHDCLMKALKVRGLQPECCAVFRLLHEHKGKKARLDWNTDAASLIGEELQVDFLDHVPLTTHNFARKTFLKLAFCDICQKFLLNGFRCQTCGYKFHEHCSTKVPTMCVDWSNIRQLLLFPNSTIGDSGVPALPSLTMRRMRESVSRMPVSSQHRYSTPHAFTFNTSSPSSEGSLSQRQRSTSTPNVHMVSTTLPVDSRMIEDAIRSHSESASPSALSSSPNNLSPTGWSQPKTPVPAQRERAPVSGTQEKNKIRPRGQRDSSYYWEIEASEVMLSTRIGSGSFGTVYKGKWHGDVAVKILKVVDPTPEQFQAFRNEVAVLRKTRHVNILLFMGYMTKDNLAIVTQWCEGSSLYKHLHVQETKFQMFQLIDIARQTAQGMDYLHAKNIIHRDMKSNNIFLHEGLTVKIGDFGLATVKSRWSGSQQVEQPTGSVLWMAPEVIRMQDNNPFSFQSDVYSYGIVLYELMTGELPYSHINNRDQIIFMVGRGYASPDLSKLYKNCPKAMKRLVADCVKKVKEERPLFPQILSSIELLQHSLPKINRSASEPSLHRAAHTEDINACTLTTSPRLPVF
T3 sequence (Q8NI60 whole entry): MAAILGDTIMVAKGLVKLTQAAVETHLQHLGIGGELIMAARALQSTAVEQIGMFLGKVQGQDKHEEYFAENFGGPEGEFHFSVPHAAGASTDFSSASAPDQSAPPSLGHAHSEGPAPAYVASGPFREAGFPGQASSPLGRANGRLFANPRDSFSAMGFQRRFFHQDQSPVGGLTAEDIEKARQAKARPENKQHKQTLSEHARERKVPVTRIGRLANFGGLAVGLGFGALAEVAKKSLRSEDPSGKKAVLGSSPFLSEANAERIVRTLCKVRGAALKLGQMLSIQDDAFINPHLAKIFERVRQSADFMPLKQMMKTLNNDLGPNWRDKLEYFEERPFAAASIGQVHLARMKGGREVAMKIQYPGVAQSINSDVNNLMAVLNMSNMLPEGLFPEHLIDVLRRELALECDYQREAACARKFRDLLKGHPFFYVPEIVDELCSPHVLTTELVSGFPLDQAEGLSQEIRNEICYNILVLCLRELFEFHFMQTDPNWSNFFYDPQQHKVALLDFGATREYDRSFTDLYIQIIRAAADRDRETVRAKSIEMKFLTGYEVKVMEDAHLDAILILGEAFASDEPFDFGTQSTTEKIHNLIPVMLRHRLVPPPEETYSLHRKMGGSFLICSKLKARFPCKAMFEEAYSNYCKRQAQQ
Sequence of MYLK2 (Q9H1R3 whole entry): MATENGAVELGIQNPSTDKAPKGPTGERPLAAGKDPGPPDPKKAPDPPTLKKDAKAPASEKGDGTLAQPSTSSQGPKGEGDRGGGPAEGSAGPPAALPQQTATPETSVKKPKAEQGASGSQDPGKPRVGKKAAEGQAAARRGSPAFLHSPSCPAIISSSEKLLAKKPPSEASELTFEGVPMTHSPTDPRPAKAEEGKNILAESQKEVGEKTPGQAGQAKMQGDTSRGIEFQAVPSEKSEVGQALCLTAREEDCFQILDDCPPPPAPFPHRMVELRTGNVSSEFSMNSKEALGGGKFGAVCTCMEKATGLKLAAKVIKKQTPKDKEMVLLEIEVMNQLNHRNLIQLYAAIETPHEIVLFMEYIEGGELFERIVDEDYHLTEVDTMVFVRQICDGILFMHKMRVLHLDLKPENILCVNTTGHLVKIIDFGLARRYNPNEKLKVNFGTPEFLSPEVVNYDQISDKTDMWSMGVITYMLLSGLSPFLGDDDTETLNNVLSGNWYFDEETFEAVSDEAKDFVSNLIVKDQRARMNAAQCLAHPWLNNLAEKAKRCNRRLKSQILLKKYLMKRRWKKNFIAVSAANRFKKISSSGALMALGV

On to `O=C(/C=C/c1cnccc1-c1ccc(F)cc1)Nc1ccc(CCc2nnco2)cc1` [T-418, (2E)-3-(4-(4-fluorophenyl)pyridin-3-yl)-N-(4-(2-(1,3,4-oxadiazol-2-yl)ethyl)phenyl)acrylamide], for which the remaining binding at 0.3 µM stood at 100% at GCN2(Kin.Dom.2,S808G) (sheet T-418); 100% on CAMK1G (sheet T-418); 80% on RAF1 (sheet T-418); 94% on CAMK2G (sheet T-418); 77% on KIT(V559D,T670I) (sheet T-418); 100% on MEK3 (sheet T-418). Moreover, the remaining binding at 0.3 µM on ADCK3 (sheet T-418) is 100%; on HIPK3 (sheet T-418) it was 64%; at EPHA1 (sheet T-418), 71%; on CAMK1 (sheet T-418), 70%; at FGFR4 (sheet T-418) it was 80%; on ALK(L1196M) (sheet T-418), 100%. Moreover, the remaining binding at 0.3 µM came out at 95% at CDK3 (sheet T-418); 97% at RIOK1 (sheet T-418); 62% on MYLK2 (sheet T-418); 92% at ASK1 (sheet T-418); 88% at CDKL5 (sheet T-418); 100% at MYO3A (sheet T-418). The remaining binding at 0.3 µM on CAMK1D (sheet T-418) stood at 94%; on HIPK1 (sheet T-418), 75%; at PKN1 (sheet T-418), 48%; at BMPR2 (sheet T-418) it was 86%.
With `Cc1ncccc1Oc1sc(C(N)=O)c2c1-c1c(cnn1C)CC2` [T-474, 1-methyl-8-((2-methylpyridin-3-yl)oxy)-4,5-dihydro-1H-thieno[3,4-g]indazole-6-carboxamide], the remaining binding at 0.3 µM on GCN2(Kin.Dom.2,S808G) amounted to 100%; at CAMK1G, 100%; on RAF1 it was 98%; at CAMK2G it was 97%; at KIT(V559D,T670I) it was 100%; on MEK3 it was 100%. For the same compound, the remaining binding at 0.3 µM at ADCK3 worked out at 90%; at HIPK3, 79%; on EPHA1 it was 73%; on CAMK1, 66%; on FGFR4, 97%; at ALK(L1196M), 100%. Besides, the remaining binding at 0.3 µM at CDK3 worked out at 100%; on RIOK1 it was 98%; at MYLK2, 92%; at ASK1, 81%; at CDKL5 it was 100%; on MYO3A, 100%. The remaining binding at 0.3 µM at CAMK1D was determined as 79%; on HIPK1 it was 81%; on PKN1, 54%; at BMPR2, 99%.
